Positions of bridges follow the written chain, without caps; N, C: chain ends. Residues, ends and D or L forms follow the SMILES beside them.
Key:
rKV1.6 = molecular target: T1, rKV1.6 (Rattus norvegicus, UniProt P17659); experiment: Two-electrode voltage-clamp on Xenopus laevis oocytes expressing rKV1.6; format: cell-based; settings: concentration-response curve, percentage blocked current fitted with Hill equation; TEVC oocytes, 0 mV from −90 mV; mean ± SE, n ≥ 3; SEM; read-out: KV1.6 IC50
T1 construct: expressed in transfected cells; host or cells: Xenopus laevis oocytes injected with cRNA
Procedure: (§1) The pharmacological effect of AbeTx1 was analyzed by heterologous expression of 12 voltage-gated potassium channels isoforms (rKV1.1, Genbank NM173095; rKV1.2, Genbank NM012970; hKV1.3, Genbank L23499; rKV1.4,Genbank NM012971; rKV1.5, Genbank NM012972; rKV1.6, Genbank NM575671; Shaker IR from Drosophila melanogaster, Genbank CG12348; rKV2.1, Genbank NM013186; hKV3.1, Genbank NM004976; rKV4.2, Genbank NM031730; rKV4.3, Genbank NM031739 and hERG, Genbank NM000238), and three voltage-gated sodium channel subtypes (rNaV1.2, Genbank NM012647; rNaV1.4, Genbank M26643 and BgNaV1.1, from Blattella germanica) (r, rat; h, human) in oocytes from Xenopus laevis. The linearized plasmids were transcribed using a T7 or SP6 mMESSAGE-mMACHINE transcription kit (Life Technologies, Austin, TX, USA). Oocytes were injected with 20–50 nL of cRNA at a concentration of 1 ng·nL^−1 using a microinjector (Drummond Scientific, Broomall, PA, USA). The oocytes were stored for 1–3 days at 16 °C until sufficient expression of voltage-gated ion channels was achieved. Oocytes were maintained in an ND96 solution (in mM: 96 NaCl, 2 KCl, 1.8 CaCl2, 2 MgCl2 and 5 HEPES; pH 7.4), supplemented with 50 µg·mL^−1 gentamicin sulfate.
(§2) Two-electrode voltage-clamp recordings were performed at room temperature (18–22 °C) using a Geneclamp 500 amplifier (Molecular Devices, Sunnyvale, CA, USA) controlled by a pClamp data acquisition system (Axon Instruments, Union City, CA, USA). ND96 was used as bath solution. Whole-cell currents from oocytes were recorded 1–3 days after injection. Voltage and current electrodes were filled with KCl (3 M). The resistance of both electrodes was kept between 0.8–1.0 MΩ. The elicited currents were filtered at 0.5 or 2 kHz using a four-pole low-pass Bessel filter. Leak subtraction was performed using a -P/4 protocol. KV1.1-KV1.6 and Shaker IR currents were evoked by 500 ms depolarization to 0 mV, followed by a 500 ms pulse to −50 mV, from a holding potential of −90 mV. KV2.1, KV3.1, KV4.2, and KV4.3 currents were elicited by 500 ms pulses to + 20 mV from a holding potential of −90 mV. Current traces of hERG channels were elicited by applying a +40 mV pulse for 2.5 s, followed by a step to −120 mV for 2.5 s. Sodium current traces were evoked by 100 ms depolarization steps from a holding potential of −90 mV to 0 mV. Concentration-response curves were constructed by adding different AbeTx1 or analogs concentrations directly to the bath solution. The percentage of the KV blockade was plotted against the logarithm of the applied concentrations and fitted with the Hill Equation (1):y = 100/[1 + (IC50/[toxin]) × h](1) where y is the amplitude of the toxin-induced effect, IC50 is the toxin concentration at half-maximal efficacy, [toxin] is the toxin concentration, and h is the Hill coefficient. To investigate the effects on the voltage dependence of activation, current traces were evoked by 10 mV depolarization steps from a holding potential of −90 mV. Data were normalized to the maximal K^+ current amplitude, plotted against prepulse potential, and fitted using the Boltzmann Equation (2):IK/Imax = [1 + (exp(Vg − V)/k] − 1(2) where Imax represents maximal potassium current (IK), Vg is the voltage corresponding to half-maximal current, and k is the slope factor. Each experimental data represents mean ± standard error of at least three oocytes (n ≥ 3) from different frogs. Effect of the toxin on current-voltage experiments was statistically examined by comparing the control condition and the presence of toxin using the Student’s paired t-test. P-values < 0.05 are considered to be statistically significant. Data were analyzed using Clampfit 10.4 (Molecular Devices, Sunnyvale, CA, USA) and Origin v8.1 software (Origin Lab, Northampton, MA, USA), under the institutional license of the University of São Paulo.

rKV1.1 = molecular target: T2, rKV1.1 (Rattus norvegicus, UniProt P10499); experiment: Two-electrode voltage-clamp on Xenopus laevis oocytes expressing rKV1.1; format: cell-based; settings: concentration-response curve, percentage blocked current fitted with Hill equation; TEVC oocytes, 0 mV from −90 mV; mean ± SE, n ≥ 3; SEM; read-out: KV1.1 IC50
T2 construct: expressed in transfected cells; host or cells: Xenopus laevis oocytes injected with cRNA
Procedure: as §1, §2

T1 sequence (P17659 whole entry): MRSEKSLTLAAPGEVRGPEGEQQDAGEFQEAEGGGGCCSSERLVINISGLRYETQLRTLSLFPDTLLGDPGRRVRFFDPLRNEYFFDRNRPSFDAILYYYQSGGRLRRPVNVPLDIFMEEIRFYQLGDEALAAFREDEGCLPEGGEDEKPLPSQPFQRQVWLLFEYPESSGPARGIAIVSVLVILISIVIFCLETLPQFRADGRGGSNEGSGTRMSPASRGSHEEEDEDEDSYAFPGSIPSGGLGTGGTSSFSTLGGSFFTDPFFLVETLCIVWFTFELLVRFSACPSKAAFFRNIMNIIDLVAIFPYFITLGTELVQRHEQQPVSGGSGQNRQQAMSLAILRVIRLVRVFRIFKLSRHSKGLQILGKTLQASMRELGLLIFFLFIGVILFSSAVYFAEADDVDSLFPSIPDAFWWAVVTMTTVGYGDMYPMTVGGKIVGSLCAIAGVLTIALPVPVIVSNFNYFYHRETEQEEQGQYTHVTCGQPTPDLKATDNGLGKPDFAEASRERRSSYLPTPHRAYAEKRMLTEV
T2 sequence (P10499 whole entry): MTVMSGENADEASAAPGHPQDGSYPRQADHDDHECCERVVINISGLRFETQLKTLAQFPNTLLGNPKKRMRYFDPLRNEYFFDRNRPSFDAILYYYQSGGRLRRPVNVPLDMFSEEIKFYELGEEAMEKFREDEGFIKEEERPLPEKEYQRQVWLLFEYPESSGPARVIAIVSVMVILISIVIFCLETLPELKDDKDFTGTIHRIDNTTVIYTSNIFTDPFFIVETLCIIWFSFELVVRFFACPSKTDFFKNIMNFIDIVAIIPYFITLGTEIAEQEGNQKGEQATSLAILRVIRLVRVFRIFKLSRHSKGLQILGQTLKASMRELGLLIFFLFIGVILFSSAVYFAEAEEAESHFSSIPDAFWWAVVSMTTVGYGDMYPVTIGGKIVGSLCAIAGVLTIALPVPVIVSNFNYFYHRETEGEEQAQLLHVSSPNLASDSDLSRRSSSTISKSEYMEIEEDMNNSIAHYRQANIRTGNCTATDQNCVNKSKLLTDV

| SMILES | IC50 (rKV1.6) [µM] | IC50 (rKV1.1) [µM] |
| --- | --- | --- |
| C[C@@H]1NC(=O)[C@@H](NC(=O)[C@@H](N)CCCNC(=N)N)CSSC[C@@H](C(=O)NCC(=O)O)NC(=O)[C@H](CC(N)=O)NC(=O)[C@@H]2CCCN2C(=O)[C@H](CCCCN)NC(=O)[C@@H]2CCCN2C(=O)[C@H](CCCNC(=N)N)NC(=O)[C@@H]2CSSC[C@H](NC(=O)[C@H]([C@@H](C)O)NC1=O)C(=O)N[C@@H](CO)C(=O)N[C@@H](CCCCN)C(=O)NCC(=O)N[C@@H](CCCNC(=N)N)C(=O)N2 [Lys3Ala] (H-RCATCSKGRCRPKPNCG-OH; disulfide 2-16, 5-10) | 18.9 | 27.5 |
| C[C@H](N)C(=O)N[C@H]1CSSC[C@@H](C(=O)NCC(=O)O)NC(=O)[C@H](CC(N)=O)NC(=O)[C@@H]2CCCN2C(=O)[C@H](CCCCN)NC(=O)[C@@H]2CCCN2C(=O)[C@H](CCCNC(=N)N)NC(=O)[C@@H]2CSSC[C@H](NC(=O)[C@H]([C@@H](C)O)NC(=O)[C@H](CCCCN)NC1=O)C(=O)N[C@@H](CO)C(=O)N[C@@H](CCCCN)C(=O)NCC(=O)N[C@@H](CCCNC(=N)N)C(=O)N2 [Arg1Ala] (H-ACKTCSKGRCRPKPNCG-OH; disulfide 2-16, 5-10) | 3.53 | 1.97 |
| C[C@@H]1NC(=O)CNC(=O)[C@H](CCCCN)NC(=O)[C@H](CO)NC(=O)[C@@H]2CSSC[C@H](NC1=O)C(=O)N[C@@H](CCCNC(=N)N)C(=O)N1CCC[C@H]1C(=O)N[C@@H](CCCCN)C(=O)N1CCC[C@H]1C(=O)N[C@@H](CC(N)=O)C(=O)N[C@H](C(=O)NCC(=O)O)CSSC[C@H](NC(=O)[C@@H](N)CCCNC(=N)N)C(=O)N[C@@H](CCCCN)C(=O)N[C@@H]([C@@H](C)O)C(=O)N2 [Arg9Ala] (H-RCKTCSKGACRPKPNCG-OH; disulfide 2-16, 5-10) | 2.44 | 8.5 |
| C[C@@H]1NC(=O)[C@H](CO)NC(=O)[C@@H]2CSSC[C@H](NC(=O)[C@H](CCCNC(=N)N)NC(=O)CNC1=O)C(=O)N[C@@H](CCCNC(=N)N)C(=O)N1CCC[C@H]1C(=O)N[C@@H](CCCCN)C(=O)N1CCC[C@H]1C(=O)N[C@@H](CC(N)=O)C(=O)N[C@H](C(=O)NCC(=O)O)CSSC[C@H](NC(=O)[C@@H](N)CCCNC(=N)N)C(=O)N[C@@H](CCCCN)C(=O)N[C@@H]([C@@H](C)O)C(=O)N2 [Lys7Ala] (H-RCKTCSAGRCRPKPNCG-OH; disulfide 2-16, 5-10) | 0.852 ± 0.09 | 17.8 |

From article PMC6213216, “AbeTx1 Is a Novel Sea Anemone Toxin with a Dual Mechanism of Action on Shaker-Type K^+ Channels Activation” (Marine Drugs, 2018)
